These results are taken from BindingDB's records for doi:10.1021/jm050686b (Rheinische Friedrich-Wilhelms-Universitat Bonn, 2005).

In the assay the target is Papain (Carica papaya) (UniProt P00784). In words: Enzyme activities were calculated from kinetic measurements performed by spectrophotometric detection of the product p-nitroaniline (pNA) at wavelength of 405 nm. Progress curves were monitored over 10 min. Rate was determined for 7 different inhibitor concentrations in duplicate. The apparent inhibition constant, Ki (app) was determined by fitting.
Sequence of Papain (Carica papaya) (P00784 whole entry, looked up): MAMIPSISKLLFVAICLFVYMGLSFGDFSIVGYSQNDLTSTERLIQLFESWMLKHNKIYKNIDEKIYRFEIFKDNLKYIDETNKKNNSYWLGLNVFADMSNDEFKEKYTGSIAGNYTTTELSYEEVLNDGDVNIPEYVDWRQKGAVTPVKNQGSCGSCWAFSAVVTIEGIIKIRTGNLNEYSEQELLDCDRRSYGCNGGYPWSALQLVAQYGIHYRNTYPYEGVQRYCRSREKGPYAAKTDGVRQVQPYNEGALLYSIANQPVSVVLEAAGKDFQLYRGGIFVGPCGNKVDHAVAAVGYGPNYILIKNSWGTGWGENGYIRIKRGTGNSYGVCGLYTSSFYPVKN

As to `CC(C)(C)OC(=O)N[C@@H](Cc1ccsc1)C(=O)NCC#N` [tert-butyl N-[(1S)-1-[(cyanomethyl)carbamoyl]-2-(thiophen-3-yl)ethyl]carbamate], the Ki is 45 µM.
